According to patent US20200087258A1, “INHIBITOR OF CITRATE TRANSPORTER AND THEIR USE IN THERAPY” (Eternygen GmbH, priority 2017, published 2020):

Target: T1, GLUT1 (Homo sapiens, UniProt P11166)
T1 construct: Huh-7 cells which endogenously express GLUT1; endogenous in cells; host or cells: Huh-7
T1 sequence (P11166 1-492): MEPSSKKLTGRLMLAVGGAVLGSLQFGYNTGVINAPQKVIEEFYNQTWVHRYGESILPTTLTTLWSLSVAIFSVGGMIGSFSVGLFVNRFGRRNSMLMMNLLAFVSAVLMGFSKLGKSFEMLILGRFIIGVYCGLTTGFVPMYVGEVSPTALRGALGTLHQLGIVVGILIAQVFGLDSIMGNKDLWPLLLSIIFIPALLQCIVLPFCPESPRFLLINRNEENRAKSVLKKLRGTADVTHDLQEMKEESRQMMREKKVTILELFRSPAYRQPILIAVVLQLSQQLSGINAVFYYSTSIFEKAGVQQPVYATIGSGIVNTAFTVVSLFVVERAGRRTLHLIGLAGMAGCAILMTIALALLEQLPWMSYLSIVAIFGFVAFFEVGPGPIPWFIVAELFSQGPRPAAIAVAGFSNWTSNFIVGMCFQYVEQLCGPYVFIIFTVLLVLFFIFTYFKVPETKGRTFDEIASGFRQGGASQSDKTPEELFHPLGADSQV
Test: 3H-glucose uptake counter assay in Huh7 cells endogenously expressing GLUT1
Assay type: cell-based
Conditions: endogenous GLUT1
Description: The compound was obtained by screening of a library containing more than 50,000 lead-like compounds and fragments. The library was tested using a functional citrate uptake assay with HEK293 cells overexpressing recombinant human INDY. The following hit confirmation was conducted in the same assay system. To confirm the activity of selected compounds on the target INDY another cell assay was conducted. In this assay system citrate uptake was measured using HepG2 cells which endogenously express INDY. Furthermore selectivity of selected compounds was tested for two other transporters in different assay systems. The first transporter was the glutamate transporter GLT-1 tested in a glutamate uptake assays using HEK293 cells overexpressing recombinant human GLT-1. The second transporter was the glucose transporter GLUT1 tested in a glucose uptake assay using Huh-7 cells which endogenously express GLUT1. Compounds were considered to be selective with an at least 5-fold higher activity for INDY than for the other two transporters.
Cells were maintained in cell medium using cell culture grade flasks (CellSTACK Corning, 500 cm2 dishes or T175 depending on cell number). The selection antibiotic and G418 (800 μg/ml) was added during cultivation but not for seeding into assay plates. For splitting, cells were washed with PBS (w/o Ca2+, Mg2+, phenol red) and detached with Trypsin/EDTA. Throughout cultivation cells were kept sub-confluent. Detached cells (50,000 cells/well) were seeded in 96-well plates (white, clear bottom from Corning #655098) and incubated over night before usage in the assay. The following media were used. For HEK293 cells expressing INDY MEM (PAA)+10% FCS+1×P/S+2 mM L-Gln; for HEK293 cells expressing GLT-1 DMEM (Gibco)+10% FCS+400 µg/ml G418; for Huh7 cells DMEM (Gibco)+10% FCS+2 mM L-Gin (+1×P/S); for HepG2 cells MEM (PAA, Cat # E15-024)+10% FCS+2 mM L-Gin+1×NEAA+1 mM Na-Pyruvat […]
Glucose uptake in Huh7 cells was measured as a counter assay. […] After 20 min incubation at RT plates were measured using TopCount system, Perkin Elmer. […]

O=C(NCc1ccccc1F)C1CCN(S(=O)(=O)/C=C/c2ccccc2)CC1 [Example 5]
IC50: > 50 µM
